From US12251434B2 (priority 2021, dated 2025)

System: hyaluronic acid
Assay type: cell-based

## 4-Methylumbelliferone [4-MU]
  Hyaluronic acid with 4-MU, HIS-SARS-CoV-2-3 overexpressed: 30.02 ± 2.00 ng/mL
  Hyaluronic acid with 4-MU, HIS-SARS-CoV-2-4 overexpressed: 19.76 ± 11.3 ng/mL
